Among the data in patent publication US20260048047A1, “SMALL-MOLECULE ACTIVATORS OF MYCOBACTERIUM TUBERCULOSIS ADENYLYL CYCLASE” (priority 2022, published 2026) are EC50 values, retold here.

What is called EC50 is the concentration at which the effect is half-maximal.

The first assay concerns M. tuberculosis. Briefly: Extracellular activity against M. tuberculosis in cholesterol media (Alamar Blue reduction assay). The class given is cell-based, Mycobacterium tuberculosis. Particulars: 7H12-Cholesterol media, 10 days; read-out: Cholesterol broth: alamar blue--EC50. A general note: The colour change of resazurin is a common sign of viable cells or microbes.
Turning to `O=C(Cc1cnccn1)N1CCC(n2nnc(-c3ccc(F)cc3)n2)CC1` [Compound 2, 1-(4-(5-(4-fluorophenyl)-2H-tetrazol-2-yl)piperidin-1-yl)-2-(pyrazin-2-yl)ethan-1-one], the EC50 is more than 10000 nM.

Take `O=C(Cc1cnccn1)N1CCC(n2nnc(-c3ccc(F)cc3)n2)CC1` [Compound 4, 1-(4-(5-(4-fluorophenyl)-2H-tetrazol-2-yl)piperidin-1-yl)-2-(pyrazin-2-yl)ethan-1-one]: the EC50 worked out at 122 nM.

The assay is the same for the next values; noted with them: Mycobacterium tuberculosis, 240 h, 7H12-Cholesterol media, 10 days; read-out: Cholesterol broth: alamar blue--EC50.
`O=C(Cc1cc(=O)[nH]c(=O)[nH]1)N1CCC(c2nc(-c3ccc(F)cc3)no2)CC1` [Compound 1, 6-(2-(4-(3-(4-fluorophenyl)-1,2,4-oxadiazol-5-yl)piperidin-1-yl)-2-oxoethyl)pyrimidine-2,4(1H,3H)-dione]: the EC50 amounted to 784 nM.

Turning to `O=c1cc(CN2CCC(c3nc(-c4ccc(Cl)c(Cl)c4)no3)CC2)[nH]c(=O)[nH]1` [Compound 3, 6-((4-(3-(3,4-dichlorophenyl)-1,2,4-oxadiazol-5-yl)piperidin-1-yl)methyl)pyrimidine-2,4(1H,3H)-dione], the EC50 was found to be 179 nM.

For the compound `CC(C)c1noc(CC(=O)N2CCC(c3nc(-c4ccc(Cl)c(Cl)c4)no3)CC2)n1` [Compound 5, 1-(4-(3-(3,4-dichlorophenyl)-1,2,4-oxadiazol-5-yl)piperidin-1-yl)-2-(3-isopropyl-1,2,4-oxadiazol-5-yl)ethan-1-one], the EC50 turned out to be 1430 nM.

With `CC(C)c1noc(CC(=O)N2CCC(c3nc(-c4ccc(F)cc4)no3)CC2)n1` [Compound 6, 1-(4-(3-(4-fluorophenyl)-1,2,4-oxadiazol-5-yl)piperidin-1-yl)-2-(3-isopropyl-1,2,4-oxadiazol-5-yl)ethan-1-one], the EC50 amounted to 2980 nM.

With `Cc1cncnc1CC(=O)N1CCC(c2nc(C3CCCCC3)no2)CC1` [Compound 7, 1-(4-(3-cyclohexyl-1,2,4-oxadiazol-5-yl)piperidin-1-yl)-2-(5-methylpyrimidin-4-yl)ethan-1-one], the EC50 was more than 25000 nM.

With `Cc1cncnc1CC(=O)N1CCC(c2nc(-c3ccc(Cl)c(Cl)c3)no2)CC1` [Compound 8, 1-(4-(3-(3,4-dichlorophenyl)-1,2,4-oxadiazol-5-yl)piperidin-1-yl)-2-(5-methylpyrimidin-4-yl)ethan-1-one], the EC50 came to 479 nM.

Turning to `Cc1cncnc1CC(=O)N1CCC(c2nc(-c3ccc(F)cc3)no2)CC1` [Compound 9, 1-(4-(3-(4-fluorophenyl)-1,2,4-oxadiazol-5-yl)piperidin-1-yl)-2-(5-methylpyrimidin-4-yl)ethan-1-one], the 50% effective concentration (EC50) turned out to be 3680 nM.

Take `Cc1conc1CC(=O)N1CCC(c2nc(-c3ccc(Cl)c(Cl)c3)no2)CC1` [Compound 10, 1-(4-(3-(3,4-dichlorophenyl)-1,2,4-oxadiazol-5-yl)piperidin-1-yl)-2-(4-methylisoxazol-3-yl)ethan-1-one]: the EC50 was determined as 284 nM.

Take `Cc1conc1CC(=O)N1CCC(c2nc(-c3ccc(F)cc3)no2)CC1` [Compound 11, 1-(4-(3-(4-fluorophenyl)-1,2,4-oxadiazol-5-yl)piperidin-1-yl)-2-(4-methylisoxazol-3-yl)ethan-1-one]: the concentration for a half-maximal effect (EC50) turned out to be 1430 nM.

Take `Cc1nc(CC(=O)N2CCC(c3nc(-c4ccc(F)cc4)no3)CC2)no1` [Compound 12, 1-(4-(3-(4-fluorophenyl)-1,2,4-oxadiazol-5-yl)piperidin-1-yl)-2-(5-methyl-1,2,4-oxadiazol-3-yl)ethan-1-one]: the EC50 was more than 10000 nM.

As to `Cc1nccnc1CC(=O)N1CCC(c2nc(C3CCCCC3)no2)CC1` [Compound 13, 1-(4-(3-cyclohexyl-1,2,4-oxadiazol-5-yl)piperidin-1-yl)-2-(3-methylpyrazin-2-yl)ethan-1-one], the EC50 is more than 25000 nM.

Turning to `Cc1nccnc1CC(=O)N1CCC(c2nc(-c3ccc(Cl)c(Cl)c3)no2)CC1` [Compound 14, 1-(4-(3-(3,4-dichlorophenyl)-1,2,4-oxadiazol-5-yl)piperidin-1-yl)-2-(3-methylpyrazin-2-yl)ethan-1-one], the concentration giving a half-maximal response (EC50) is 8320 nM.

Regarding `Cc1nccnc1CC(=O)N1CCC(c2nc(-c3ccc(F)cc3)no2)CC1` [Compound 15, 1-(4-(3-(4-fluorophenyl)-1,2,4-oxadiazol-5-yl)piperidin-1-yl)-2-(3-methylpyrazin-2-yl)ethan-1-one], the EC50 worked out at 1220 nM.

Consider `Cc1nnn(CC(=O)N2CCC(c3nc(-c4ccc(Cl)c(F)c4)no3)CC2)n1` [Compound 16, 1-(4-(3-(4-chloro-3-fluorophenyl)-1,2,4-oxadiazol-5-yl)piperidin-1-yl)-2-(5-methyl-2H-tetrazol-2-yl)ethan-1-one], for which the EC50 came to 790 nM.

`Cc1nnnn1CC(=O)N1CCC(c2nc(-c3ccc(Cl)c(F)c3)no2)CC1` [Compound 17, 1-(4-(3-(4-chloro-3-fluorophenyl)-1,2,4-oxadiazol-5-yl)piperidin-1-yl)-2-(5-methyl-1H-tetrazol-1-yl)ethan-1-one]: the EC50 was 160 nM.

For `Cc1noc(CC(=O)N2CCC(c3nc(C4CC5CCC4C5)no3)CC2)n1` (stereo not shown) [Compound 18, 1-(4-(3-(bicyclo[2.2.1]heptan-2-yl)-1,2,4-oxadiazol-5-yl)piperidin-1-yl)-2-(3-methyl-1,2,4-oxadiazol-5-yl)ethan-1-one], the EC50 is more than 10000 nM.

On to `Cc1noc(CC(=O)N2CCC(c3nc(C4CCC5(CC4)OCCO5)no3)CC2)n1` [Compound 19, 1-(4-(3-(1,4-dioxaspiro[4.5]decan-8-yl)-1,2,4-oxadiazol-5-yl)piperidin-1-yl)-2-(3-methyl-1,2,4-oxadiazol-5-yl)ethan-1-one], for which the EC50 is more than 10000 nM.

Regarding `Cc1noc(CC(=O)N2CCC(c3nc(C4CCCC4)no3)CC2)n1` [Compound 20, 1-(4-(3-cyclopentyl-1,2,4-oxadiazol-5-yl)piperidin-1-yl)-2-(3-methyl-1,2,4-oxadiazol-5-yl)ethan-1-one], the EC50 was more than 25000 nM.

On to `Cc1noc(CC(=O)N2CCC(n3nnc(C4CCCC4)n3)CC2)n1` [Compound 21, 1-(4-(5-cyclopentyl-2H-tetrazol-2-yl)piperidin-1-yl)-2-(3-methyl-1,2,4-oxadiazol-5-yl)ethan-1-one], for which the EC50 worked out at 7350 nM.

As to `Cc1noc(CC(=O)N2CCC(c3nc(C4CCCC5CC54)no3)CC2)n1` (stereo not shown) [Compound 22, 1-(4-(3-(bicyclo[4.1.0]heptan-2-yl)-1,2,4-oxadiazol-5-yl)piperidin-1-yl)-2-(3-methyl-1,2,4-oxadiazol-5-yl)ethan-1-one], the EC50 is 890 nM.

Take `Cc1noc(CC(=O)N2CCC(c3nc(C4CCCCC4)no3)CC2)n1` [Compound 23, 1-(4-(3-cyclohexyl-1,2,4-oxadiazol-5-yl)piperidin-1-yl)-2-(3-methyl-1,2,4-oxadiazol-5-yl)ethan-1-one]: the EC50 was more than 10000 nM.

Take `Cc1noc(CC(=O)N2CCC(n3nnc(C4CCCCC4)n3)CC2)n1` [Compound 24, 1-(4-(5-cyclohexyl-2H-tetrazol-2-yl)piperidin-1-yl)-2-(3-methyl-1,2,4-oxadiazol-5-yl)ethan-1-one]: the EC50 was more than 25000 nM.

Regarding `Cc1noc(CC(=O)N2CCC(O)(c3nc(C4CCCCC4)no3)CC2)n1` [Compound 25, 1-(4-(3-cyclohexyl-1,2,4-oxadiazol-5-yl)-4-hydroxypiperidin-1-yl)-2-(3-methyl-1,2,4-oxadiazol-5-yl)ethan-1-one], the EC50 was more than 10000 nM.

`Cc1noc(CC(=O)N2CCC(c3nc(C45CCC(CC4)C5)no3)CC2)n1` [Compound 26, 1-(4-(3-(bicyclo[2.2.1]heptan-1-yl)-1,2,4-oxadiazol-5-yl)piperidin-1-yl)-2-(3-methyl-1,2,4-oxadiazol-5-yl)ethan-1-one]: the EC50 is more than 25000 nM.

With `Cc1noc(CC(=O)N2CCC(c3nc(C4(C)CCCCC4)no3)CC2)n1` [Compound 27, 2-(3-methyl-1,2,4-oxadiazol-5-yl)-1-(4-(3-(1-methylcyclohexyl)-1,2,4-oxadiazol-5-yl)piperidin-1-yl)ethan-1-one], the EC50 was more than 25000 nM.

Take `Cc1noc(CC(=O)N2CCC(c3nc(C4CC4(C)C)no3)CC2)n1` (stereo not shown) [Compound 28, 1-(4-(3-(2,2-dimethylcyclopropyl)-1,2,4-oxadiazol-5-yl)piperidin-1-yl)-2-(3-methyl-1,2,4-oxadiazol-5-yl)ethan-1-one]: the EC50 was more than 25000 nM.

Regarding `Cc1noc(CC(=O)N2CCC(c3nc(C4CCC(C)(C)C4)no3)CC2)n1` (stereo not shown) [Compound 29, 1-(4-(3-(3,3-dimethylcyclopentyl)-1,2,4-oxadiazol-5-yl)piperidin-1-yl)-2-(3-methyl-1,2,4-oxadiazol-5-yl)ethan-1-one], the EC50 is 3730 nM.

Turning to `Cc1noc(CC(=O)N2CCC(c3nc(C4CCC(C)(C)CC4)no3)CC2)n1` [Compound 30, 1-(4-(3-(4,4-dimethylcyclohexyl)-1,2,4-oxadiazol-5-yl)piperidin-1-yl)-2-(3-methyl-1,2,4-oxadiazol-5-yl)ethan-1-one], the EC50 is 1140 nM.

As to `Cc1noc(CC(=O)N2CCC(c3nc(C4C[C@@H](C)C[C@@H](C)C4)no3)CC2)n1` (stereo partly drawn) [Compound 31, 1-(4-(3-((3R,5S)-3,5-dimethylcyclohexyl)-1,2,4-oxadiazol-5-yl)piperidin-1-yl)-2-(3-methyl-1,2,4-oxadiazol-5-yl)ethan-1-one], the concentration for a half-maximal effect (EC50) was more than 25000 nM.

As to `Cc1noc(CC(=O)N2CCC(c3nc(-c4ccc(Cl)cc4Cl)no3)CC2)n1` [Compound 32, 1-(4-(3-(2,4-dichlorophenyl)-1,2,4-oxadiazol-5-yl)piperidin-1-yl)-2-(3-methyl-1,2,4-oxadiazol-5-yl)ethan-1-one], the EC50 came out at 718 nM.

`Cc1noc(CC(=O)N2CCC(c3nc(-c4ccc(Cl)c(Cl)c4)no3)CC2)n1` [Compound 33, 1-(4-(3-(3,4-dichlorophenyl)-1,2,4-oxadiazol-5-yl)piperidin-1-yl)-2-(3-methyl-1,2,4-oxadiazol-5-yl)ethan-1-one]: the EC50 stood at 140 nM.

For `Cc1noc(CC(=O)N2CCC(c3nc(-c4ccc(Cl)cc4)no3)CC2)n1` [Compound 34, 1-(4-(3-(4-chlorophenyl)-1,2,4-oxadiazol-5-yl)piperidin-1-yl)-2-(3-methyl-1,2,4-oxadiazol-5-yl)ethan-1-one], the EC50 is 399 nM.
